Holding throughout (assay): Dynamic properties (Michaelis-Menten) of LsGluDH mutant, PPO reductive amination
What all share (assay type): biochemical
Common to all, as to conditions: PPO 5-100 mM, NADPH 0.15 mM, NH4Cl 50 mM, PBS pH 7.5, 30° C., diluted crude enzyme, 340 nm

For test [1], the target named is T1, Lysinibacillus sphaericus glutamate dehydrogenase (LsGluDH, SEQ ID NO: 2) variant A175G-A182R, SEQ ID NO: 36 (Lysinibacillus pinottii, UniProt A0ABT2DNY0, A175G/A182R).
T1 sequence (A0ABT2DNY0 1-457 A175G/A182R): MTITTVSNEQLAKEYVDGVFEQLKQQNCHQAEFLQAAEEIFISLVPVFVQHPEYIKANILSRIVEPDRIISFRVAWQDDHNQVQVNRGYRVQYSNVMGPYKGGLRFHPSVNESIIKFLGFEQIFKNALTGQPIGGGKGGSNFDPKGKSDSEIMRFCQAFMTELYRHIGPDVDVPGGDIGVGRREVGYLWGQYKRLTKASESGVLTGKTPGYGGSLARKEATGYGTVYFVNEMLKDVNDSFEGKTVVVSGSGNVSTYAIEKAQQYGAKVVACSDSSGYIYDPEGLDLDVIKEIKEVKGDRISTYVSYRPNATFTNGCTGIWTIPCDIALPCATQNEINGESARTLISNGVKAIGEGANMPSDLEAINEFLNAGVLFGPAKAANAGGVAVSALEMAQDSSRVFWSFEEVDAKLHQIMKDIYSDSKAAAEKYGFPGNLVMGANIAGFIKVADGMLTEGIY
On the procedure:
(§1) A plurality of reaction systems (200 μL) comprising PBS of 100 mM pH 7.5 (pH was adjusted with aqueous ammonia solution), NADPH (reductive) of 0.15 mM, NH4Cl of 50 mM, diluted (500 folds) crude enzyme solution of 10% volume and the substrate PPO at various concentrations (5-100 mM) were formulated on a 96-well plate. The intensity of the UV absorption at 340 nm was detected at 30° C., and the rate of change in absorption over time (mA/min) was recorded. The obtained parameters were plugged into Michaelis-Menten equation, in which the reaction velocity was calculated with the rate of change in absorption.
(§2) The mutants were prepared with the coding nucleic acid of LsGluDH (SEQ ID NO: 2) as the template, and the enzyme activities and the dynamic parameters Vmax and Km were measured, according to the method of Example 1. The resulted mutants and the enzyme activities and the dynamic parameters thereof are shown in Table 2, and the relative enzyme activity means the percentage of the enzyme activity of the mutant to the enzyme activity of the mutant of SEQ ID NO: 31.

Test [2] deals with T2, Lysinibacillus sphaericus glutamate dehydrogenase (LsGluDH, SEQ ID NO: 2) variant A175G, SEQ ID NO: 31 (Lysinibacillus pinottii, UniProt A0ABT2DNY0, A175G).
T2 sequence (A0ABT2DNY0 1-457 A175G): T1 sequence (A0ABT2DNY0 1-457 A175G/A182R) with R182A
On the procedure:
as §1, §2

Test [3] addresses T3, Lysinibacillus sphaericus glutamate dehydrogenase (LsGluDH, SEQ ID NO: 2) variant A175G-I133V, SEQ ID NO: 33 (Lysinibacillus pinottii, UniProt A0ABT2DNY0, A175G/I133V).
T3 sequence (A0ABT2DNY0 1-457 A175G/I133V): T1 sequence (A0ABT2DNY0 1-457 A175G/A182R) with I133V, R182A
On the procedure:
as §1, §2

For test [4], the target named is T4, Lysinibacillus sphaericus glutamate dehydrogenase (LsGluDH, SEQ ID NO: 2) variant A175G-I133V-V173S-A182R, SEQ ID NO: 38 (Lysinibacillus pinottii, UniProt A0ABT2DNY0, A175G/A182R/I133V/V173S).
T4 sequence (A0ABT2DNY0 1-457 A175G/A182R/I133V/V173S): T1 sequence (A0ABT2DNY0 1-457 A175G/A182R) with I133V, V173S
On the procedure:
as §1, §2

Numbering of substitutions follows the chain as printed.

For the compound `CP(=O)(O)CCC(=O)C(=O)O` [PPO, 2-carbonyl-4-(hydroxymethylphosphono) butyric acid], the Km (commonly the substrate concentration at which the rate is half of its maximum) in test [1] is 38 mM; in test [2], 49 mM; in test [3], 35 mM; in test [4], 26 mM. For the same compound, the Vmax in test [1] is 46 mA/min; in test [2] it was 39 mA/min; in test [3], 39 mA/min; in test [4] it was 38 mA/min.

The record behind these values is patent publication US20250129344A1, “MODIFIED GLUTAMATE DEHYDROGENASE AND APPLICATION THEREOF” (Hunan Lier Biotech Co., Ltd., priority 2021, published 2025).
